Measured values taken from patent publication US20170251662A1, “ALTERNATIVE DEVICE AND METHODS FOR APPLICATION OF 1-METHYLCYCLOPROPENE TO FRUIT” (AGROFRESH INC., priority 2016, published 2017).

Experiments:
Format in all cases: in vivo
Bartlett pears = assay: Liquid 1-MCP drench treatment on pears; set-up: key to Firmness, statistical significance between control and treated bins of pears by layers / Ethylene Content, statistical significance between control and treated bins of pears by layers / Skin Color, statistical significance between control and treated bins of pears by layers: Lx: layers that contained fruit that were not statistically significantly different from control; All: fruit tested in all layers was statistically significantly different from control; None: no layers were identified that had statistical significance from control
Method: Bins of freshly harvested Bartlett pears were sprayed with 0 gal (control), 1.0 gal, 2.0 gal, or 3.0 gal of Harvista AFxRD038 formulation. The AFxRD038 liquid 1-methylcyclopropene (1-MCP) formulation was made of 3 gal of water, 36 g of AFxRD038, 113 ml of HiSupreme Spray Oil, and 5.63 ml of Silwett L-77 surfactant.
A CO2 backpack sprayer was used to apply the different volumes of 1-MCP treatment within an initial time period of a few days (e.g., about 2-3 days). The formulation was applied to bins containing a total of approximately 900 lbs of pears. Each bin comprised 7-9 layers depending on the size of the pears, with layer 1 being the top layer and layers 7-9 being the bottom layer. A control bin having 9 layers of pears was not sprayed with 1-MCP treatment.
The bins of pears were allowed to air dry outside, and were then stored in regular cold air (i.e., about 4° C.) for a second time period of about two days. The fruit was then moved to a controlled atmosphere storage having a temperature of 31° F. for a third time period of about 45 days. Upon removal of the fruit from storage in the bins, the fruit was then placed in a warm room having a temperature of about 68° F. for a fourth time period of about six days.
On the sixth day of the fourth time period of warm room exposure, each individual bin of fruit was sampled in a uniform fashion. Uniform sampling was performed by removing about 250 pears from the top of each bin, layer-by-layer. Each layer of about 250 fruit was stored in plastic bins for further analysis during a fifth time period. Day 6 evaluation occurred on the same day the layers were removed from the bin. Four days later (Day 10), another series of fruit layers were analyzed. Four more days later (Day 14), the last set of fruit from the bins were analyzed.
On days 6, 10, and 14, a subset of fruit from each layer of each bin was analyzed for firmness, ethylene content, and fruit skin color. Quality measurements were taken on an individual layer of fruit within each treated bin to establish the effectiveness and consistency of the treatments from top to bottom of each fruit bin (see FIGS. 3-5). For example, firmness of the pears was measured by peeling the pears, and measuring the middle pulp with an 8 mm tip.

Cantaloupe melons [1] = assay: Comparative liquid 1-MCP spray treatment on melons, stored about 15 days
Method: This experiment was conducted to test the effect of 1-MCP spray treatment on Cantaloupe melons as compared to SmartFresh treatment. Bins containing 9 kilograms each of freshly harvested Cantaloupe melons were sprayed four times using a dual-liquid sprayer comprising the Harvista AFx701 formulation (see FIG. 10). Each spray of the AFx701 liquid 1-methylcyclopropene (1-MCP) formulation comprised 83.5 mg of AFx701 and 608 mg of water. Thus, a total amount of 1.67 mg of 1-MCP active ingredient and 2.43 g of water was applied to each bin of melons, which equates to 0.185 mg of 1-MCP per kg of melons. The 1-MCP treatment formulations were prepared and applied to […] using a sprayer, and compared to apples that had been treated with SmartFresh or no 1-MCP at all (control).
(§1) The bins of melons were allowed to air dry outside, and were then stored in regular cold air (i.e., about 36° F.) for a second time period of about 15 days. The melons were then moved to a regular atmosphere storage having a temperature of about 70° F. for a third time period of about 2, 4, or 6 more days. Upon removal of the fruit from storage in the bins, the fruit were then analyzed for firmness. Firmness of the melons was measured by cutting the melons in half, and measuring the middle pulp with an 8 mm tip.
Day 15 evaluation occurred on the same day the fruit were removed from storage in the bin. Two days later (Day 15+2), another series of fruit were analyzed. Two more days later (Day 15+4), an additional set of fruit were removed and analyzed. Finally, the last set of fruit from the bins was analyzed two days later (Day 15+6). Quality measurements were taken on individual melons randomly selected from different treated bins and different positions within each treated bin (e.g., the edge and/or the center of the bin) to establish the effectiveness and consistency of the treatments (see FIG. 11).

Red Delicious apples = assay: Liquid 1-MCP drench treatment on apples; set-up: key to Ethylene Content, statistical significance between control and treated bins of apples by layers: Lx: layers that contained fruit that were not statistically significantly different from control; All: fruit tested in all layers was statistically significantly different from control; None: no layers were identified that had statistical significance from control; settings: for Firmness of apples compared with unsprayed control apples: most apples
Method: This experiment was conducted to test the effect of 1-MCP treatment on Red Delicious apples. This experiment was performed exactly as detailed above in Example 1 for Bartlett pears, but with a few noted exceptions described here. Specifically, Red Delicious apples were treated with a 1-MCP treatment comprising 31 g of AFxRD038. The apples were treated with 0.5 gal, 1.0 gal, and 2.0 gal volumes of the 1-MCP treatment, which were applied to bins of apples comprised in 9-10 layers depending on the size of the apples. A control bin having 10 layers of apples was not sprayed with 1-MCP treatment. The apples were stored for a third time period at room temperature for 33 days. The apples were analyzed for firmness and ethylene content at warm day 7 and 14 of the fifth time period.

Cantaloupe melons [2] = assay: Comparative liquid 1-MCP spray treatment on melons, stored about 9 days
Method: as §1, with “This experiment was conducted to test the effect of 1-MCP spray treatment on Cantaloupe melons as compared to SmartFresh treatment. This experiment was performed exactly as detailed above in Example 1 for Bartlett pears, but with a few noted exceptions described here. The bins” for “The bins”, “of about 9 days. The” for “of about 15 days. The”

Golden Delicious apples = assay: Comparative analysis of 1-MCP treatments of apples applied with the wand device; settings: for Fruit firmness of apples relative to SmartFresh and control apples: 65 days at about 1° C. + 7 days room temperature
Method: This experiment was conducted to test the effect of different application methods of 1-MCP treatment (i.e., Harvista AFx701) on Golden Delicious apples in bins. Apples were treated with two different formulations of the 1-MCP treatment, including a formulation comprising 1) 20 grams of 1-MCP and 2 liters of water, which was applied in 10 seconds and 2) 60 grams of 1-MCP and 6 liters of water, which was applied in 30 seconds. The 1-MCP treatment formulations were prepared and applied to apples using the wand device, and compared to apples that had been treated with SmartFresh or no 1-MCP at all (control).
Apples were stored for 65 days in cold air at about 1° C. temperature, prior to being stressed for 7 days at room temperature. Replicates of 25 fruit were sampled from each layer of each fruit bin to analyze fruit firmness (in pounds, lbs) and internal ethylene concentration (ppm). Data were analyzed on a whole bin basis using all replicates from each layer.

[3] = spray, 9 days cold storage, all days
[4] = Treatment 2: 60 grams of 1-MCP and 6 liters of water, 30 seconds, wand device

CC1=CC1 [1-MCP, 1-Methylcyclopropene]
Firmness of pears compared with unsprayed control fruit (Bartlett pears; 1 gal, 2 gal or 3 gal, layers 1-9, warm days 6, 10 and 14): significantly better firmness | Firmness, statistical significance between control and treated bins of pears by layers (Bartlett pears; WRD 6, 1 Gal): All | Skin Color, statistical significance between control and treated bins of pears by layers (Bartlett pears; WRD 6, 1 Gal): All | Firmness, statistical significance between control and treated bins of pears by layers (Bartlett pears; WRD 6, 2 Gal): All | Skin Color, statistical significance between control and treated bins of pears by layers (Bartlett pears; WRD 6, 2 Gal): All | Firmness, statistical significance between control and treated bins of pears by layers (Bartlett pears; WRD 6, 3 Gal): All | Skin Color, statistical significance between control and treated bins of pears by layers (Bartlett pears; WRD 6, 3 Gal): All | Ethylene Content, statistical significance between control and treated bins of pears by layers (Bartlett pears; WRD 10, 1 Gal): All | Firmness, statistical significance between control and treated bins of pears by layers (Bartlett pears; WRD 10, 1 Gal): All | Skin Color, statistical significance between control and treated bins of pears by layers (Bartlett pears; WRD 10, 1 Gal): All | Firmness, statistical significance between control and treated bins of pears by layers (Bartlett pears; WRD 10, 2 Gal): All | Skin Color, statistical significance between control and treated bins of pears by layers (Bartlett pears; WRD 10, 2 Gal): All | Firmness, statistical significance between control and treated bins of pears by layers (Bartlett pears; WRD 10, 3 Gal): All | Skin Color, statistical significance between control and treated bins of pears by layers (Bartlett pears; WRD 10, 3 Gal): All | Firmness, statistical significance between control and treated bins of pears by layers (Bartlett pears; WRD 14, 1 Gal): All | Skin Color, statistical significance between control and treated bins of pears by layers (Bartlett pears; WRD 14, 1 Gal): None | Firmness, statistical significance between control and treated bins of pears by layers (Bartlett pears; WRD 14, 2 Gal): All | Skin Color, statistical significance between control and treated bins of pears by layers (Bartlett pears; WRD 14, 2 Gal): None | Firmness, statistical significance between control and treated bins of pears by layers (Bartlett pears; WRD 14, 3 Gal): All | Skin Color, statistical significance between control and treated bins of pears by layers (Bartlett pears; WRD 14, 3 Gal): None | Control and/or inhibition of fruit ripening in pears (Bartlett pears; as little as 1 gal of 1-MCP treatment): effective to control and/or inhibit fruit ripening in pears | Fruit color of pears compared with unsprayed control fruit (Bartlett pears; layers 1-9, days 6 and 10): significantly less fruit color | Ethylene concentration of pears compared with unsprayed control fruit (Bartlett pears; layers 1-9, warm days 6, 10 and 14): significantly lower ethylene concentrations | Fruit skin color of pears compared with control (Bartlett pears; warm day 14): none of the layers showed a significant difference | Control and/or inhibition of fruit ripening in melons (Cantaloupe melons [1]; 15 days cold storage): effective to control and/or inhibit fruit ripening in melons | Firmness of melons compared with control fruit (Cantaloupe melons [1]; Day 15, 15+2, 15+4, 15+6 (all days)): significant differences from the control fruit | Firmness of melons compared with SmartFresh-treated melons (Cantaloupe melons [1]; all days): relatively comparable to melons treated with SmartFresh | Ethylene Content, statistical significance between control and treated bins of apples by layers (Red Delicious apples; WRD 7, 0.5 Gal): All | Ethylene Content, statistical significance between control and treated bins of apples by layers (Red Delicious apples; WRD 7, 1 Gal): All | Ethylene Content, statistical significance between control and treated bins of apples by layers (Red Delicious apples; WRD 7, 2 Gal): All | Ethylene Content, statistical significance between control and treated bins of apples by layers (Red Delicious apples; WRD 14, 2 Gal): All | Control and/or inhibition of fruit ripening in apples (Red Delicious apples; as little as 0.5 gal of 1-MCP treatment): effective to control and/or inhibit fruit ripening in apples | Firmness of apples compared with unsprayed control apples (Red Delicious apples; day 14, except layers 2, 5, 8 and 10): significantly better firmness | Ethylene concentration of apples compared with unsprayed control apples (Red Delicious apples; warm day 7, layers 1-10): significantly lower ethylene concentrations | Firmness of apples compared with unsprayed control apples (Red Delicious apples; warm day 7, except layers 5, 8 and 9): significantly better firmness | Firmness of melons compared with SmartFresh-treated melons (Cantaloupe melons [2]; Day 9+4): even higher | Control and/or inhibition of fruit ripening in melons (Cantaloupe melons [2]; spray, 9 days cold storage): effective to control and/or inhibit fruit ripening in melons | Firmness of melons compared with SmartFresh-treated fruit (Cantaloupe melons [2]; [3]): statistically the same as SmartFresh treated fruit | Firmness of melons compared with control (Cantaloupe melons [2]; [3]): significant differences from the control | Control and/or inhibition of fruit ripening in apples (Golden Delicious apples; 1-MCP treatment applied with a wand device): effective to control and/or inhibit fruit ripening in apples | Fruit firmness of apples relative to SmartFresh and control apples (Golden Delicious apples; Treatment 1: 20 grams of 1-MCP and 2 liters of water, 10 seconds, wand device): highest | Internal ethylene concentration of apples compared with Treatment 1 or control (Golden Delicious apples; [4]): significantly less ethylene concentration | Fruit firmness of apples relative to SmartFresh and control apples (Golden Delicious apples; [4]): highest
